{"source": "patent US7122643B2", "about": "“Cytostatic lanthanum compounds” (Faustus Forschungs Cie. Translational Cancer Research GmbH, priority 2001, dated 2006)", "key": {"[1]": {"tested_on": "13 human tumour xenografts and 10 human tumour cell lines"}, "[2]": {"tested_on": "over 50 human tumour cell lines"}, "[3]": {"details": "mean over 13 human tumour xenografts and 10 human tumour cell lines"}}}
{"substance": "[tris(1,10-phenantrolin)lanthanum(III)]trithiocyanate", "values": [{"measurement": "Cytostatic activity (in words)", "setting": "[1]; 13 human tumour xenografts and 10 human tumour cell lines", "value": "good cytostatic activity"}, {"measurement": "Activity relative to average of the panel", "setting": "[1]; mammary carcinoma cell lines MCF7, MDA468A, parvicellular bronchial carcinoma cell line DMS 114, one each of melanoma, ovarian, kidney cell and non-parvicellular bronchial carcinoma xenografts", "value": "Above average activities"}, {"measurement": "Mean IC50", "setting": "[1]; [3]", "value": 3.60, "unit": "µg/mL"}, {"measurement": "Mean IC90", "setting": "[1]; [3]", "value": 12.1, "unit": "µg/mL"}, {"measurement": "Tumour type selectivity", "setting": "[1]; prostate and colorectal carcinoma", "value": "selectivity for prostate and colorectal carcinoma"}, {"measurement": "IC50", "setting": "[1]; read-out: Mean IC50, mean over 13 human tumour xenografts and 10 human tumour cell lines", "value": 4.21, "unit": "µM"}, {"measurement": "IC90", "setting": "[1]; read-out: Mean IC90, mean over 13 human tumour xenografts and 10 human tumour cell lines", "value": 14.2, "unit": "µM"}, {"measurement": "Cytostatic effectiveness (in words)", "setting": "[2]; over 50 human tumour cell lines, 48-h", "value": "Good effectiveness"}, {"measurement": "Activity relative to average of the panel", "setting": "[2]; some melanoma and kidney cell carcinoma cell lines", "value": "Above average activities"}]}
